# Data from patent US20240262832A1, “SMALL MOLECULE MODULATORS OF GLUCOCEREBROSIDASE ACTIVITY AND USES THEREOF” (Vanqua Bio, Inc., priority 2021, published 2024).
# Target: T1, GCase (Homo sapiens, UniProt P04062)
# T1 construct: endogenous in cells; host or cells: HeLa cells
# T1 sequence (P04062 40-536): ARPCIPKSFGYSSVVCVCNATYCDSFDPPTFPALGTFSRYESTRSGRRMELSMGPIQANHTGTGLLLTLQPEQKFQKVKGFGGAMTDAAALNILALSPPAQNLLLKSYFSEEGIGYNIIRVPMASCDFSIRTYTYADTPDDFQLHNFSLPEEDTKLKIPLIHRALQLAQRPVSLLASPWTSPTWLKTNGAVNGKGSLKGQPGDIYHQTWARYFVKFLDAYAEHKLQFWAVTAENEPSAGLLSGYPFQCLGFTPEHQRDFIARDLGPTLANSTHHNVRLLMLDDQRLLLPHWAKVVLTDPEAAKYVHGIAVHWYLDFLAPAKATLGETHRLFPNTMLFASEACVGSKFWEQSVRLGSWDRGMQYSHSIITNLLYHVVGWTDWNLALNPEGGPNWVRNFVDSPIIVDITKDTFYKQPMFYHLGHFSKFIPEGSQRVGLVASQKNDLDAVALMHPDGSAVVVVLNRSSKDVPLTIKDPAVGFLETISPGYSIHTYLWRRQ
# Assay: activation of GCase in a live cell PFB assay in HELA cells
# Assay type: cell-based
row,SMILES,EC50
1,O=C(CCCc1ccccc1)N1CCC(Oc2ccc(C(F)(F)F)cn2)CC1 [Compound 386],10 to 50 µM
2,"FC(F)(F)c1cccc(OCC2CN(c3cncc(-c4nncs4)n3)CCC2(F)F)n1 (stereo not drawn) [Compound 64, 2-[4,4-Difluoro-3-({[6-(trifluoromethyl)pyridin-2-yl]oxy}methyl)piperidin-1-yl]-6-(1,3,4-thiadiazol-2-yl)pyrazine]",10 to 50 µM
3,CCC(C)(C)C(=O)N1CCC(COc2cccc(C(F)(F)F)n2)CC1 [Compound 350],50 to 100 µM
4,"C[C@@H]1C[C@@H](COc2cccnc2C(F)(F)F)CN(c2cnc3cnn(CC(F)F)c3n2)C1 [Compound 95, 1-(2,2-Difluoroethyl)-6-((3R,5R)-3-methyl-5-(((2-(trifluoromethyl)pyridin-3-yl)oxy)methyl)piperidin-1-yl)-1H-pyrazolo[3,4-b]pyrazine]",< 10 µM
5,"CC1CCN(c2cnc3cnn(CC(F)F)c3n2)CC1COc1cccnc1C(F)(F)F (stereo not drawn) [Compound 48, 1-(2,2-Difluoroethyl)-6-(4-methyl-3-(((2-(trifluoromethyl)pyridin-3-yl)oxy)methyl)piperidin-1-yl)-1H-pyrazolo[3,4-b]pyrazine]",< 10 µM
6,Cc1cccnc1OCC1CCN(C(=O)Cc2cn(C)c3ccccc23)CC1 [Compound 359],10 to 50 µM
7,"C[C@H]1C[C@H](COc2cccnc2C(F)(F)F)CN(c2cnc3cnn(CC(F)F)c3n2)C1 [Compound 100, 1-(2,2-Difluoroethyl)-6-((3S,5S)-3-methyl-5-(((2-(trifluoromethyl)pyridin-3-yl)oxy)methyl)piperidin-1-yl)-1H-pyrazolo[3,4-b]pyrazine]",10 to 50 µM
8,CCCCC[C@H]1CC[C@H](C(=O)N2CCCC(COc3ccccc3)C2)CC1 (stereo partly drawn) [Compound 178],< 10 µM
9,"Cc1ccccc1OCC1CCCN(C(=O)c2cnn3c(-c4ccccc4)ccc(F)c23)C1 (stereo not drawn) [Compound 292, (4-Fluoro-7-phenylpyrazolo[1,5-a]pyridin-3-yl)(3-((o-tolyloxy)methyl)piperidin-1-yl)methanone]",10 to 50 µM
10,"FC(F)Cn1ncc2ncc(N3CCC(OC4CN(c5cccnc5C(F)(F)F)C4)CC3)nc21 [Compound 329, 1-(2,2-Difluoroethyl)-6-(4-((1-(2-(trifluoromethyl)pyridin-3-yl)azetidin-3-yl)oxy)piperidin-1-yl)-1H-pyrazolo[3,4-b]pyrazine]",< 10 µM
11,"FC(F)Cn1ncc2ncc(N3C[C@@H]4[C@@H](COc5ccc(C(F)(F)F)nc5)[C@@H]4C3)nc21 [Compound 63, (1R,5S,6S)-3-[1-(2,2-difluoroethyl)-1H-pyrazolo[3,4-b]pyrazin-6-yl]-6-({[6-(trifluoromethyl)pyridin-3-yl]oxy}methyl)-3-azabicyclo[3.1.0]hexane]",10 to 50 µM
12,"O=C(c1ccc2cc[nH]c2c1)N1CCC(COc2ccccc2)CC1 [Compound 416, 6-[4-(Phenoxymethyl)piperidine-1-carbonyl]-1H-indole]",10 to 50 µM
13,"O=C(c1ccc2cc[nH]c2c1)N1CCC(Oc2ccc(C(F)(F)F)nc2)CC1 [Compound 314, (1H-Indol-6-yl)(4-((6-(trifluoromethyl)pyridin-3-yl)oxy)piperidin-1-yl)methanone]",50 to 100 µM
14,COc1ccc(OCC2CCN(c3nnc(N)s3)CC2)cc1 [Compound 429],> 100 µM
15,COc1ccc(OCC2CCN(Cc3[nH]cnc3C)CC2)cc1 [Compound 453],> 100 µM
16,"O=C(c1ccc2cc[nH]c2c1)N1CC2CC2(COc2cccnc2C(F)(F)F)C1 (stereo not drawn) [Compound 261, 6-[1-({[2-(Trifluoromethyl)pyridin-3-yl]oxy}methyl)-3-azabicyclo[3.1.0]hexane-3-carbonyl]-1H-indole]",> 100 µM
17,"FC(F)(F)c1ncccc1OC[C@@H]1[C@H]2CN(c3cnc4cnn(C5COC5)c4n3)C[C@@H]12 [Compound 98, 1-(Oxetan-3-yl)-6-((1R,5S,6r)-6-(((2-(trifluoromethyl)pyridin-3-yl)oxy)methyl)-3-azabicyclo[3.1.0]hexan-3-yl)-1H-pyrazolo[3,4-b]pyrazine]",> 100 µM
18,COc1ccc(OCC2CCN(C(=O)Cc3ccccn3)CC2)cc1 [Compound 466],> 100 µM
19,"CC(C)c1cc(C(=O)N2C[C@@H]3[C@@H](COc4cccnc4C(F)(F)F)[C@@H]3C2)[nH]n1 [Compound 110, (1R,5S,6R)-3-[3-(Propan-2-yl)-1H-pyrazole-5-carbonyl]-6-({[2-(trifluoromethyl)pyridin-3-yl]oxy}methyl)-3-azabicyclo[3.1.0]hexane]",50 to 100 µM
20,COc1ccc(OCC2CCN(c3nncc(C)c3C)CC2)cc1 [Compound 430],50 to 100 µM
21,"FC(F)Cn1ncc2ncc(N3CCC(Oc4cccc(C(F)(F)F)n4)CC3)nc21 [Compound 309, 1-(2,2-Difluoroethyl)-6-(4-((6-(trifluoromethyl)pyridin-2-yl)oxy)piperidin-1-yl)-1H-pyrazolo[3,4-b]pyrazine]",10 to 50 µM

row,SMILES,EC50
1,"CC(=O)N1CCC(c2cc3ncc(N4CCCC(COc5ccccc5C)C4)nc3n2C)CC1 (stereo not drawn) [Compound 86, 1-(4-(5-Methyl-3-(3-((o-tolyloxy)methyl)piperidin-1-yl)-5H-pyrrolo[2,3-b]pyrazin-6-yl)piperidin-1-yl)ethan-1-one]",10 to 50 µM
2,"C[C@@H]1CC[C@H](COc2cc(C(F)(F)F)ccn2)CN1c1cnc2cnn(CC(F)F)c2n1 [Compound 276, 1-(2,2-Difluoroethyl)-6-((2R,5S)-2-methyl-5-(((4-(trifluoromethyl)pyridin-2-yl)oxy)methyl)piperidin-1-yl)-1H-pyrazolo[3,4-b]pyrazine]",50 to 100 µM
3,COc1ccc2c(c1)CCCC2CC(=O)N1CCCC(COc2ccccc2)C1 (stereo not drawn) [Compound 135],10 to 50 µM
4,"O=C(c1nnc(C(F)(F)c2ccccc2)o1)N1CCCC(COc2ccccc2)C1 (stereo not drawn) [Compound 51, (5-(Difluoro(phenyl)methyl)-1,3,4-oxadiazol-2-yl)(3-(phenoxymethyl)piperidin-1-yl)methanone]",> 100 µM
5,"O=C(c1cnn(-c2ccccc2)n1)N1CCC(Oc2ccccc2)CC1 [Compound 410, 4-Phenoxy-1-(2-phenyl-2H-1,2,3-triazole-4-carbonyl)piperidine]",10 to 50 µM
6,"C[C@@H]1CC[C@H](COc2cccnc2C(F)(F)F)CN1c1cnc2cnn(CC(F)F)c2n1 [Compound 80, 1-(2,2-Difluoroethyl)-6-((2R,5S)-2-methyl-5-(((2-(trifluoromethyl)pyridin-3-yl)oxy)methyl)piperidin-1-yl)-1H-pyrazolo[3,4-b]pyrazine]",< 10 µM
7,"FC(F)Cn1ncc2ncc(N3CCC(COc4ccncc4C(F)(F)F)CC3)nc21 [Compound 308, 1-(2,2-Difluoroethyl)-6-(4-(((3-(trifluoromethyl)pyridin-4-yl)oxy)methyl)piperidin-1-yl)-1H-pyrazolo[3,4-b]pyrazine]",< 10 µM
8,COc1ccc(OCC2CCN(c3cc(C4CC(N)C4)ncn3)CC2)cc1 (stereo not drawn) [Compound 482],> 100 µM
9,"COCCn1ncc2ncc(N3C[C@@H](C)C[C@H](COc4cccnc4C(F)(F)F)C3)nc21 [Compound 230b, 1-(2-Methoxyethyl)-6-((3S,5S)-3-methyl-5-(((2-(trifluoromethyl)pyridin-3-yl)oxy)methyl)piperidin-1-yl)-1H-pyrazolo[3,4-b]pyrazine]",< 10 µM
10,CCCCCCC(C)C(=O)N1CCCC(COc2ccccc2)C1 (stereo not drawn) [Compound 132],< 10 µM
11,"O=C(Cc1csc(-c2ccccc2)n1)N1CCC(Oc2ncccc2C(F)(F)F)CC1 [Compound 401, 2-(2-Phenyl-1,3-thiazol-4-yl)-1-(4-{[3-(trifluoromethyl)pyridin-2-yl]oxy}piperidin-1-yl)ethan-1-one]",10 to 50 µM
12,"Cn1c(-c2cccc(C(F)(F)F)n2)nc2nc(N3C[C@@H]4[C@@H](COc5cc(F)cc(F)c5)[C@@H]4C3)cnc21 [Compound 227, 5-((1R,5S,6r)-6-((3,5-difluorophenoxy)methyl)-3-azabicyclo[3.1.0]hexan-3-yl)-1-methyl-2-(6-(trifluoromethyl)pyridin-2-yl)-1H-imidazo[4,5-b]pyrazine]",< 10 µM
13,O=C(C(c1ccccc1)c1ccccc1)N1CCC(Oc2ccc(C(F)(F)F)cn2)CC1 [Compound 387],10 to 50 µM
14,"CC(=O)N1CCC(c2cncc(N3CCCC(COc4ccccc4C(F)(F)F)C3)n2)C(C)C1 (stereo not drawn) [Compound 112, 1-(3-methyl-4-(6-(3-((2-(trifluoromethyl)phenoxy)methyl)piperidin-1-yl)pyrazin-2-yl)piperidin-1-yl)ethan-1-one]",< 10 µM
15,"Cc1ccccc1OCC1CCCN(C(=O)c2cn(C)c3ccn(-c4ccccc4)c(=O)c23)C1 (stereo not drawn) [Compound 38, 1-Methyl-5-phenyl-3-(3-((o-tolyloxy)methyl)piperidine-1-carbonyl)-1,5-dihydro-4H-pyrrolo[3,2-c]pyridin-4-one]",10 to 50 µM
16,CCN1CCC(NC(=O)N2CCC(COc3ccc(OC)cc3)CC2)C1 (stereo not drawn) [Compound 434],> 100 µM
17,CC(C)Sc1ccc(CC(=O)N2CCC(Oc3ncccc3C#N)CC2)cc1 [Compound 369],10 to 50 µM
18,"O=C(N1CCCC(COc2ncccc2C(F)(F)F)C1)N1CCOC(Cc2ccccc2)C1 (stereo not drawn) [Compound 258, (2-Benzylmorpholino)(3-(((3-(trifluoromethyl)pyridin-2-yl)oxy)methyl)piperidin-1-yl)methanone]",50 to 100 µM
19,Cn1c(-c2ccc(F)cc2)nc2nc(C(=O)N3C[C@@H]4[C@@H](COc5cccnc5C(F)(F)F)[C@@H]4C3)cnc21 [Compound 223],> 100 µM
20,O=C([C@@H]1C[C@H]1c1ccc(F)cc1)N1CCCC(COc2ccccc2)C1 (stereo partly drawn) [Compound 219],10 to 50 µM
21,COc1ccc(OCC2CCN(C(=O)c3cccc(NC(=O)C(C)C)c3)CC2)cc1 [Compound 446],10 to 50 µM
